Measured values reported in patent US20090137572A1, “2-substituted-4-heteroaryl-pyrimidines useful for the treatment of proliferative disorders” (priority 2004, published 2009).

Tests used:
Assay type in all cases: biochemical
[1] = target: CDK7/cyclin H (Homo sapiens, UniProt P50613); experiment: CDK 7 assay (CTD peptide substrate); details: read-out: Kinase Inhibition pIC50 CDK7-cyclin H (converted)
How it was run: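 Radiometric filter-binding read-out: 32P transferred from 100 μM [γ-32P]ATP to biotinyl-(YSPTSPS)4 CTD peptide. Enzyme 0.5-2 μg recombinant human complex; 20 mM MOPS pH 7.2, 15 mM MgCl2, vanadate, DTT; 45 min, 30° C; avidin bound, P81 plate washed, counted.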

[2] = target: T1, Flt3 (FMS-like tyrosine kinase-3) (Homo sapiens, UniProt P36888); experiment: Kinase assay (radioactive phosphate incorporation), Flt3; details: pIC50 is -log(IC50, M), read-out: Kinase Inhibition pIC50 Flt3 (converted)
T1 sequence (P36888 27-993): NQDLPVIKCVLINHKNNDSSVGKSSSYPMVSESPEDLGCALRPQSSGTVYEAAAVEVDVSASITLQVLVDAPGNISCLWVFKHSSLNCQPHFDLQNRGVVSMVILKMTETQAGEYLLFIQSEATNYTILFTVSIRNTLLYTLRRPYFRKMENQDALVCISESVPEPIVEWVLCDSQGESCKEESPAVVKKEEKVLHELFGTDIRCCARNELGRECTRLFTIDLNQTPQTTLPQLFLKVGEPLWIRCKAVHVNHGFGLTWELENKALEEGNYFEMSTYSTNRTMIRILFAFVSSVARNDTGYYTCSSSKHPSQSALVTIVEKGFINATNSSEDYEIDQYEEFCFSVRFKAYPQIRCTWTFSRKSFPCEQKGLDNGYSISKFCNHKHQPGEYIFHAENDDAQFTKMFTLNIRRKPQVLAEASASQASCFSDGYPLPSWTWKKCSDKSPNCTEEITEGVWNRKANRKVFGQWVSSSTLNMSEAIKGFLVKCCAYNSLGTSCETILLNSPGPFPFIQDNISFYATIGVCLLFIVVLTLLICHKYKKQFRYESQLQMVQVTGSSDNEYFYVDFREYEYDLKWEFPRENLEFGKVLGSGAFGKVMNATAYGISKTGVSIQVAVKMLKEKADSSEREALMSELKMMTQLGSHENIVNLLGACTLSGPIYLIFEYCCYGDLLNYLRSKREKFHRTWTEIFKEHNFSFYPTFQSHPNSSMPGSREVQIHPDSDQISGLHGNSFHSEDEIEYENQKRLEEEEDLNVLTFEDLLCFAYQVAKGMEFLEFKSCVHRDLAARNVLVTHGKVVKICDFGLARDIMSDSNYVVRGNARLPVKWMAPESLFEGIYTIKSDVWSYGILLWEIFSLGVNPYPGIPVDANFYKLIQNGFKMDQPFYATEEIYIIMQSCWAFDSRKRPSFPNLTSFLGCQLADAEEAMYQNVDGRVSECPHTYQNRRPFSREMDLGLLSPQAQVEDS
How it was run: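 Inhibition was measured as transfer of radiolabelled phosphate from [γ-32P]-ATP (100 μM ATP, 15 mM MgCl2) onto polypeptide substrates by recombinant kinases or kinase complexes. Reactions ran at 30° C in MOPS/β-glycerophosphate buffer, pH 7.4, were stopped on ice and filtered before scintillation counting.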

[3] = target: T2, protein kinases (panel of Table 4) (Homo sapiens, UniProt P00519); experiment: Kinase selectivity profile, kinase inhibition IC50 (Table 4), ATP 100 μM; details: kinase Ab1
T2 construct: other: kinase Ab1; ATP 100 μM
Procedure: (§1) For the assays shown in Table 3, the kinases were assayed at the following ATP concentrations: SAPK4, PKBΔph, GSK3b, SAPK3, CK2, MKK1, PIM2, IKKB, ERK8, and PRK2 at 5 μM; JNK, PRAK, ROCK-II, SAPK2b, CDK2, CHK1, MSK1, CSK, P70S6K, PKA, CK1, MAPKAP-K2, SGK, PKCa, PDK1, NEK 7, and MAPKAP-K3 at 20 μM; SAPK2a, LCK, AMPK, MAPK2, DYRK1a, MAPKAP-K1a, NEK-6, NEK2a, PBK, CAMK-1, SRPK-1, JNK3, MNK2, RSK2, MNK1, PKBB, and SmMLCK at 50 μM. For the assays in Table 4 the ATP concentration was 100 μM throughout.

[4] = target: T3, protein kinases (panel of Table 4) (Homo sapiens, UniProt P09619); experiment: as above; details: kinase PDGFb
T3 construct: other: kinase PDGFb; ATP 100 μM
Procedure: as §1

[5] = target: T4, protein kinases (panel of Table 4) (Homo sapiens, UniProt P11802); experiment: as above; details: kinase CDK4D1
T4 construct: other: kinase CDK4D1; ATP 100 μM
Procedure: as §1

[6] = target: T5, protein kinases (panel of Table 4) (Homo sapiens, UniProt P28482); experiment: as above; details: kinase ERK2
T5 construct: other: kinase ERK2; ATP 100 μM
Procedure: as §1

[7] = target: T6, protein kinases (panel of Table 4) (Homo sapiens, UniProt P49841); experiment: as above; details: kinase GSK3b
T6 construct: other: kinase GSK3b; ATP 100 μM
Procedure: as §1

[8] = target: T7, protein kinases (panel of Table 4) (Homo sapiens, UniProt P50750); experiment: as above; details: kinase CDK9T1
T7 construct: other: kinase CDK9T1; ATP 100 μM
Procedure: as §1

T2 sequence (P00519 whole entry): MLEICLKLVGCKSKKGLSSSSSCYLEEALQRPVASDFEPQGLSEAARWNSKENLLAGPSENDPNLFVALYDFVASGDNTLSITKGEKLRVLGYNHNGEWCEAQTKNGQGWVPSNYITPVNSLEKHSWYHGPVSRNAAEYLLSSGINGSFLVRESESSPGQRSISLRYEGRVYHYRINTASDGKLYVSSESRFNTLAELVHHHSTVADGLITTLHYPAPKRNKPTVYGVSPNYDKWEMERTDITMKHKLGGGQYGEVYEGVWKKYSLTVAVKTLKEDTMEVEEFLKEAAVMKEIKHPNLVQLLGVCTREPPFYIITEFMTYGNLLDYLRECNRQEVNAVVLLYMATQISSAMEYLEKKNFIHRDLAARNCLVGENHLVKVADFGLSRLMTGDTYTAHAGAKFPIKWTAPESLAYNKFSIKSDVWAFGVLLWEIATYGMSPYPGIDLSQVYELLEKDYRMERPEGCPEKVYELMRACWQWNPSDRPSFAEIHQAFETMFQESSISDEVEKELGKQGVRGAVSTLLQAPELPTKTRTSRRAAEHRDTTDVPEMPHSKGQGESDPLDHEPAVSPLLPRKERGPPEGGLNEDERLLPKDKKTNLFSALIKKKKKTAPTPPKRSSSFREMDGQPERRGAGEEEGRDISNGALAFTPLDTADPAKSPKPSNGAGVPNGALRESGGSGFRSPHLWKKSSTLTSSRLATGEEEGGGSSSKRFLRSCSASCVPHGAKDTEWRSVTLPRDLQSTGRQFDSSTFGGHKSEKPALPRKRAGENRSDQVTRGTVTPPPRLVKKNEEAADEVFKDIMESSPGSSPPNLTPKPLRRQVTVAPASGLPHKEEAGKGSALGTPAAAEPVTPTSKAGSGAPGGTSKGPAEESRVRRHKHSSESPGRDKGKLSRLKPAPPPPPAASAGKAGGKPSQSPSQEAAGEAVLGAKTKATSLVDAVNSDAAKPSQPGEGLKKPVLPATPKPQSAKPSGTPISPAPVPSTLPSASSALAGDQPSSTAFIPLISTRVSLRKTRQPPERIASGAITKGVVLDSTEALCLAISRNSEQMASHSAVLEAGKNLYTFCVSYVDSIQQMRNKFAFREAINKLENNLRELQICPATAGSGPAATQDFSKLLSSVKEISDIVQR
Sequence of CDK7/cyclin H (P50613 whole entry): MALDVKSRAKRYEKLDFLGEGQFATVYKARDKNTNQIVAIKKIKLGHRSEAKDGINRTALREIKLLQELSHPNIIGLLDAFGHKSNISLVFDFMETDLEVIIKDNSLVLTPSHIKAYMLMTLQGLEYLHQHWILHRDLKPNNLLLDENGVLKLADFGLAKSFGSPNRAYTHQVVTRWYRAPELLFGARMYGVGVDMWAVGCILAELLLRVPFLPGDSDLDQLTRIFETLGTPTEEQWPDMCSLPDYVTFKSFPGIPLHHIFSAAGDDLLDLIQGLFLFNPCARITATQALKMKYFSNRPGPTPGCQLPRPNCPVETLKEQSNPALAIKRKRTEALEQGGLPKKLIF
Sequence of CDK7/cyclin H (P51946 whole entry partner): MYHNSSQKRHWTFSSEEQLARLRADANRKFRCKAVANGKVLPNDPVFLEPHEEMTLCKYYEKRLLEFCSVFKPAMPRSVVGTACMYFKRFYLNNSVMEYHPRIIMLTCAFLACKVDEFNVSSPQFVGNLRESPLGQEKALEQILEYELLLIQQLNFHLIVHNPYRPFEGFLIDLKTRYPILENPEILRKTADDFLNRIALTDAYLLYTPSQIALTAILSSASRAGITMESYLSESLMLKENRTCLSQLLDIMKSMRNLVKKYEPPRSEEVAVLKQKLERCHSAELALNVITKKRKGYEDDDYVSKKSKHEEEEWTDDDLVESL
T3 sequence (P09619 whole entry): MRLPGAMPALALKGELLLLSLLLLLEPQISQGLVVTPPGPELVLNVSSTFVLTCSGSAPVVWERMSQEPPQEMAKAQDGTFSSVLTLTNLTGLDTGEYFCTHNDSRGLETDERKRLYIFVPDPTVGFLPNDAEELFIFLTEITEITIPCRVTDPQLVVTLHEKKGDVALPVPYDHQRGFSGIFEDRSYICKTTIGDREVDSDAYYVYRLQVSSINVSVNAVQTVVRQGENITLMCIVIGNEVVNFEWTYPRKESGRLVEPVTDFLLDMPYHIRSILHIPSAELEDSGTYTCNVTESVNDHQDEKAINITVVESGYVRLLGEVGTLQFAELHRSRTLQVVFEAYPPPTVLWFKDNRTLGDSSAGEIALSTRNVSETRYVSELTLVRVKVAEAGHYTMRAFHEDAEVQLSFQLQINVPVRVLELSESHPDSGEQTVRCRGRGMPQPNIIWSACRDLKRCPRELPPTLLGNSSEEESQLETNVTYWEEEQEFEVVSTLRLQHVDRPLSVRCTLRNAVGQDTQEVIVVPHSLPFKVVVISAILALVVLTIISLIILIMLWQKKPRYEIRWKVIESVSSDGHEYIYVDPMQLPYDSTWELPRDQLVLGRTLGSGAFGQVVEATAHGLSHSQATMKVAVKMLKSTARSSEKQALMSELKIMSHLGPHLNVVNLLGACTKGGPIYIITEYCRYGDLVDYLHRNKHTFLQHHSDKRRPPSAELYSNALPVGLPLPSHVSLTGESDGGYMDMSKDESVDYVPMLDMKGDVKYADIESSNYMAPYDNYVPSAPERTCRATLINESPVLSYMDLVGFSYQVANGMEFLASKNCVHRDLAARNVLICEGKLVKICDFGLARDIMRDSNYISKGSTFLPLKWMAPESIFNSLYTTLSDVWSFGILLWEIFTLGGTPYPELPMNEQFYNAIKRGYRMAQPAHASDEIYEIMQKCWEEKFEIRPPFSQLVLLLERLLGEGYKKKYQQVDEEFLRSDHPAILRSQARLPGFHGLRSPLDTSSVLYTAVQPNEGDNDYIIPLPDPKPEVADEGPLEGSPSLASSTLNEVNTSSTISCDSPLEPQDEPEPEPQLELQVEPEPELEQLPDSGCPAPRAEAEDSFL
T7 sequence (P50750 whole entry): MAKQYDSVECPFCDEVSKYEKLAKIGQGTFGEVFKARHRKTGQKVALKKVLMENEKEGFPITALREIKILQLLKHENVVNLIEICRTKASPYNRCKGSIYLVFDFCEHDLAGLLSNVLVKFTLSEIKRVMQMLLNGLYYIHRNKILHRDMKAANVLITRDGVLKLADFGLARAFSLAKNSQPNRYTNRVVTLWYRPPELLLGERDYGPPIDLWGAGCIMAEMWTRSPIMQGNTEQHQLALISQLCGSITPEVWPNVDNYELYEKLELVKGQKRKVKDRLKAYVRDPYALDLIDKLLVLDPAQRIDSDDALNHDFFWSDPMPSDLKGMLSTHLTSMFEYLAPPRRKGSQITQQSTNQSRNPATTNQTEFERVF
T6 sequence (P49841 whole entry): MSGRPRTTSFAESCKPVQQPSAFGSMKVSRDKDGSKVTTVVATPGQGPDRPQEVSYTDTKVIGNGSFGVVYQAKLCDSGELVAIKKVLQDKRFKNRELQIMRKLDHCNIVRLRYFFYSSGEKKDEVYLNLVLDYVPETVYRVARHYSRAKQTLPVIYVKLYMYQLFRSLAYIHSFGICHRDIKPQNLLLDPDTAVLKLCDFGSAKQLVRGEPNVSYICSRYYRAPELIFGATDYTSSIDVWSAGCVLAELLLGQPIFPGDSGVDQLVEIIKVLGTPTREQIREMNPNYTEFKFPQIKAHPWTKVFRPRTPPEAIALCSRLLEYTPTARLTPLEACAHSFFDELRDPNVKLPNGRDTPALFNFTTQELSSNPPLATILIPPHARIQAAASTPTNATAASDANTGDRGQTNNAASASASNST
T5 sequence (P28482 whole entry): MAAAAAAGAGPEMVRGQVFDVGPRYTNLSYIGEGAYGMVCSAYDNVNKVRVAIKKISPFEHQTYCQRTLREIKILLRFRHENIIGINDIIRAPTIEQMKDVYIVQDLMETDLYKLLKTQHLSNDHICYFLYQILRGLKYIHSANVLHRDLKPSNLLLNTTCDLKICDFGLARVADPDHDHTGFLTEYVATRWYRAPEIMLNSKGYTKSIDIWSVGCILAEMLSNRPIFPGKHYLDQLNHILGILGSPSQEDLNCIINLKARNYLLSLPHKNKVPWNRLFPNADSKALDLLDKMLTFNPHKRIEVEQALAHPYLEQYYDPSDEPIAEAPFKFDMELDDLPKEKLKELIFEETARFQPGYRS
T4 sequence (P11802 whole entry): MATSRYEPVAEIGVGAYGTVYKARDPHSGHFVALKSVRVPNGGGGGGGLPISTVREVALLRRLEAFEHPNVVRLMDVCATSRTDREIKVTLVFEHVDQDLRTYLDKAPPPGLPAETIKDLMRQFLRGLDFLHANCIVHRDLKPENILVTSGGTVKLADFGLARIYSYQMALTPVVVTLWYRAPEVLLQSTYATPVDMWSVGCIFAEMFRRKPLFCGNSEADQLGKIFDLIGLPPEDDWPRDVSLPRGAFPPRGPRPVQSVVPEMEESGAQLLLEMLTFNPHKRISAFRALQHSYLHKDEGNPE

SMILES | IC50 [1] [nM] | IC50 [2] [nM] | IC50 [3] [nM] | IC50 [4] [nM] | IC50 [5] [nM] | IC50 [6] [µM] | IC50 [7] [nM] | IC50 [8] [nM]
CNc1nc(C)c(-c2ccnc(Nc3cccc(S(N)(=O)=O)c3)n2)s1 [Compound 19, 3-[4-(4-Methyl-2-methylamino-thiazol-5-yl)-pyrimidin-2-ylamino]-benzenesulfonamide] | 50.1 | 31.6 | 370 | 490 | 17 | > 10 | 170 | 3
CNc1nc(C)c(-c2ccnc(Nc3cccc(S(C)(=O)=O)c3)n2)s1 [Compound 27, (3-Methanesulfonyl-phenyl)-[4-(4-methyl-2-methylamino-thiazol-5-yl)-pyrimidin-2-yl]-amine] | 200 | 63.1 | 2100 | 520 | 180 | > 10 | 94 | 1
CNc1nc(C)c(-c2ccnc(Nc3ccc(C)c(S(=O)(=O)N4CCOCC4)c3)n2)s1 [Compound 37, [4-(4-Methyl-2-methylamino-thiazol-5-yl)-pyrimidin-2-yl]-[4-methyl-3-(morpholine-4-sulfonyl)-phenyl]-amine] | 3980 | 158 | 3800 | 6600 | > 10000 | > 10 | 1800 | 22
Cc1ccc(Nc2nccc(-c3sc(N)nc3C)n2)cc1S(=O)(=O)N1CCOCC1 [Compound 38, [4-(2-Amino-4-methyl-thiazol-5-yl)-pyrimidin-2-yl]-[4-methyl-3-(morpholine-4-sulfonyl)-phenyl]-amine] | 631 | 200 | 2300 | 4800 | > 10000 | > 10 | 2200 | 28
COCCNS(=O)(=O)c1cccc(Nc2nccc(-c3sc(N)nc3C)n2)c1 [Compound 55, 3-[4-(2-Amino-4-methyl-thiazol-5-yl)-pyrimidin-2-ylamino]-N-(2-methoxy-ethyl)-benzenesulfonamide] | 631 | 200 | 2100 | 1900 | 1600 | > 10 | 450 | 30
CCNc1nc(C)c(-c2ccnc(Nc3ccc(N4CCNCC4)cc3)n2)s1 [Compound 59, [4-(2-Ethylamino-4-methyl-thiazol-5-yl)-pyrimidin-2-yl]-(4-piperazin-1-yl-phenyl)-amine] | 126 | 15.8 | 470 | 210 | 46 | > 10 | > 10000 | 110
Cc1nc(CS(=O)(=O)c2cccs2)sc1-c1ccnc(Nc2ccc(N3CCOCC3)cc2)n1 [Compound 138, {4-[4-Methyl-2-(thiophene-2-sulfonylmethyl)-thiazol-5-yl]-pyrimidin-2-yl}-(4-morpholin-4-yl-phenyl)-amine] | 3160 | – | – | – | – | – | – | –
